Literature values in article PMC8170883 (Viruses, 2021).

Assays:
SARS-Cov-2 = conditions: cell cultures
SARS-CoV-2 nsp12 (RdRp) = conditions: blocks binding of RNA to the enzyme

| SMILES | Antiviral effect against SARS-CoV-2 (SARS-Cov-2) | Inhibition of RdRp (SARS-CoV-2 nsp12 (RdRp)) |
| --- | --- | --- |
| CCN(CC)CCCC(C)Nc1ccnc2cc(Cl)ccc12 (stereo not shown) [Chloroquine, chloroquine] | antiviral effects |  |
| Cc1ccc(C(=O)Nc2ccc(S(=O)(=O)O)c3cc(S(=O)(=O)O)cc(S(=O)(=O)O)c23)cc1NC(=O)c1cccc(NC(=O)Nc2cccc(C(=O)Nc3cc(C(=O)Nc4ccc(S(=O)(=O)O)c5cc(S(=O)(=O)O)cc(S(=O)(=O)O)c45)ccc3C)c2)c1 [Suramin] | antiviral effects | potent inhibitor |
| CCN(CC)CCCC(C)Nc1c2ccc(Cl)cc2nc2ccc(OC)cc12 (stereo not shown) [Quinacrine, quinacrine] | antiviral effects |  |
